# Measurements taken from patent US20160251367A1, “SYNTHESIS OF TRITOQUALINE SALTS” (Chrysalis Pharma, priority 2014, published 2016).
# Assay: physchem
# Format: physicochemical
# Conditions: not given
# Excerpt: The dissolution tests show a very substantial and surprising increase in tritoqualine.
increase of the initial solubility of tritoqualine in water,solubility,Compound
1500 times,0.75 M/L,"CC(=O)O.CCOc1c(N)c2c(c(OCC)c1OCC)C(C1c3c(cc4c(c3OC)OCO4)CCN1C)OC2=O (centres unmarked) [Tritoqualine acetate, tritoqualine acetate]"
11 000 times,,"CC1(C)C2CCC1(CS(=O)(=O)O)C(=O)C2.CCOc1c(N)c2c(c(OCC)c1OCC)C(C1c3c(cc4c(c3OC)OCO4)CCN1C)OC2=O (centres unmarked) [Tritoqualine camphorsulfonate, tritoqualine camphorsulfonate]"
15 000 times,,"CCOc1c(N)c2c(c(OCC)c1OCC)C(C1c3c(cc4c(c3OC)OCO4)CCN1C)OC2=O.O=C(O)C=CC(=O)O (centres unmarked) [Tritoqualine fumarate, tritoqualine fumarate]"
500 times,0.25 M/L,"CCOc1c(N)c2c(c(OCC)c1OCC)C(C1c3c(cc4c(c3OC)OCO4)CCN1C)OC2=O.Cl (centres unmarked) [Tritoqualine hydrochloride, tritoqualine hydrochloride]"
50 000 times,,"CCOc1c(N)c2c(c(OCC)c1OCC)C(C1c3c(cc4c(c3OC)OCO4)CCN1C)OC2=O.CS(=O)(=O)O (centres unmarked) [Tritoqualine methylsulfonate, tritoqualine methylsulfonate]"
31 000 times,,"CCOc1c(N)c2c(c(OCC)c1OCC)C(C1c3c(cc4c(c3OC)OCO4)CCN1C)OC2=O.O=P(O)(O)O (centres unmarked) [Tritoqualine phosphate, tritoqualine phosphate]"
2500 times,1.25 M/L,tritoqualine sulfate

# Same assay, conditions: water
row,solubility,Compound
1,500 µM,"CCOc1c(N)c2c(c(OCC)c1OCC)C(C1c3c(cc4c(c3OC)OCO4)CCN1C)OC2=O (racemic) [tritoqualine, 7-Amino-4,5,6-triethoxy-3-(5,6,7,8-tetrahydro-4-methoxy-6-methyl-1,3-dioxolo[4,5-g]isoquinolin-5-yl) phthalide]"
